The text below walks through data of patent publication US12172941B2, “Organic compound and organic light-emitting device” (CANON KABUSHIKI KAISHA, priority 2020, dated 2024).

Common to all, as to type: physicochemical
Series [1] is described as follows: Difference between decomposition temperature (TG/DTA) and sublimation temperature. Particulars: decomposition: 5% weight loss in TG/DTA; sublimation: vacuum 1×10^−1 Pa, Ar flow. From the text: The decomposition temperature is a temperature at which the weight loss reaches 5% in TG/DTA measurement. […] In the toluene solubility test performed in a nitrogen atmosphere under reflux by heating while stirring, dissolution was visually inspected and was expressed as a relative value with respect to the amount of toluene (1.0) used to completely dissolve the exemplary compound A1.

Series [2] is described as follows: Absolute PL quantum yield in solution (C9920-02). As to conditions: room temperature, relative value.
Series [3] is described as follows: Photoluminescence emission spectrum of toluene solution (F-4500). Particulars: toluene solution 1×10^−5 mol/l, room temperature, excitation 350 nm. The protocol: The measurement was performed by measuring photoluminescence with F-4500 manufactured by Hitachi, Ltd. at room temperature and at an excitation wavelength of 350 nm.

Compound `c1ccc(-c2c3c(c(-c4ccccc4)c4c2ccc2c5cc6c(cc5ccc24)-c2cccc4cccc-6c24)-c2cc4ccccc4c4cccc-3c24)cc1` [Exemplary compound A1] returned a Decomposition temperature-sublimation temperature in series [1] of 90 °C.

Regarding `Cc1ccc(-c2cc3c4cc5c(cc4c(-c4ccc(C)cc4)cc3c3cc4c(cc23)-c2cc3ccccc3c3cccc-4c23)-c2cc3ccccc3c3cccc-5c23)cc1` [Exemplary compound D2], the Quantum yield in series [2] (exemplary compound D2 = 1.00) amounted to 1.00. The same compound yielded a λmax in series [3] of 453.

Regarding `c1ccc(-c2cc3c4cc5c(cc4c(-c4ccccc4)cc3c3cc4c(cc23)-c2cccc3cccc-4c23)-c2cccc3c2c-5cc2ccccc23)cc1` [Exemplary compound A17], the Quantum yield in series [2] (exemplary compound A17 = 1.00) is on record as 1.00. The compound also returned an Emission wavelength max in series [3] of 449.

Take `c1ccc(-c2c3c(c(-c4ccccc4)c4c2ccc2c5cc6c(cc5ccc24)-c2cccc4cccc-6c24)-c2cccc4cccc-3c24)cc1` [Comparative compound (2)]: the Decomposition temperature-sublimation temperature in series [1] is 70 °C.

In the case of `c1ccc(-c2cc3c4cc5c(cc4c(-c4ccccc4)cc3c3cc4c(cc23)-c2cccc3cccc-4c23)-c2cccc3cccc-5c23)cc1` [Comparative compound (1)], the Quantum yield in series [2] (exemplary compound A17 = 1.00) and in series [2] (exemplary compound D2 = 1.00) was 0.95 in each case. In series [3], the Emission wavelength max was determined as 449. The same compound came in with a λmax in series [3] of 449.
